Data: patent US20230391768A2, “IMIDAZOPYRIDINE DERIVATIVES AND AZA-IMIDAZOPYRIDINE DERIVATIVES AS JANUS KINASE 2 INHIBITORS AND USES THEREOF” (Dana-Farber Cancer Institute, Inc., priority 2018, published 2023)

How the values were obtained:
Assay in all cases: KINOMEscan
Type in all cases: binding
Conditions in all cases: read-out: percent of control
MYLK4 = MYLK4 (Homo sapiens (Human), UniProt Q86YV6)
Experimental: (§1) In vitro profiling of Compound I-2 (1 μM) was performed using the DiscoveRx KINOMEscan® platform.

TRKA = TRKA (Homo sapiens (Human), UniProt P04629)
Experimental: as §1

MUSK = MUSK (Homo sapiens (Human), UniProt O15146)
Experimental: as §1

ADCK3 = ADCK3 (Homo sapiens (Human), UniProt Q8NI60)
Experimental: as §1

STK39 = STK39 (Homo sapiens (Human), UniProt Q9UEW8)
Experimental: as §1

MEK1 = MEK1 (Homo sapiens (Human), UniProt Q02750)
Experimental: as §1

PKAC-alpha = PKAC-alpha (Homo sapiens (Human), UniProt P17612)
Experimental: as §1

DCAMKL2 = DCAMKL2 (Homo sapiens (Human), UniProt Q8N568)
Experimental: as §1

MAP4K4 = MAP4K4 (Homo sapiens (Human), UniProt O95819)
Experimental: as §1

RIPK5 = RIPK5 (Homo sapiens (Human), UniProt Q6XUX3)
Experimental: as §1

MST3 = MST3 (Homo sapiens (Human), UniProt Q9Y6E0)
Experimental: as §1

LTK = LTK (Homo sapiens (Human), UniProt P29376)
Experimental: as §1

ERK3 = ERK3 (Homo sapiens (Human), UniProt Q16659)
Experimental: as §1

TAOK2 = TAOK2 (Homo sapiens (Human), UniProt Q9UL54)
Experimental: as §1

OSR1 = OSR1 (Homo sapiens (Human), UniProt O95747)
Experimental: as §1

PIK3C2G = PIK3C2G (Homo sapiens (Human), UniProt O75747)
Experimental: as §1

ROCK2 = ROCK2 (Homo sapiens (Human), UniProt O75116)
Experimental: as §1

HIPK3 = HIPK3 (Homo sapiens (Human), UniProt Q9H422)
Experimental: as §1

CAMK1B = CAMK1B (Homo sapiens (Human), UniProt Q6P2M8)
Experimental: as §1

DYRK1B = DYRK1B (Homo sapiens (Human), UniProt Q9Y463)
Experimental: as §1

PIK3CA(C420R) = PIK3CA(C420R) (Homo sapiens (Human), UniProt P42336, C420R)
Experimental: as §1

BMPR1A = BMPR1A (Homo sapiens (Human), UniProt P36894)
Experimental: as §1

KIT-autoinhibited = KIT-autoinhibited (Homo sapiens (Human), UniProt P10721)
Experimental: as §1

FYN = FYN (Homo sapiens (Human), UniProt P06241)
Experimental: as §1

RAF1 = RAF1 (Homo sapiens (Human), UniProt P04049)
Experimental: as §1

CAMKK2 = CAMKK2 (Homo sapiens (Human), UniProt Q96RR4)
Experimental: as §1

SGK3 = SGK3 (Homo sapiens (Human), UniProt Q96BR1)
Experimental: as §1

ASK1 = ASK1 (Homo sapiens (Human), UniProt Q99683)
Experimental: as §1

LIMK2 = LIMK2 (Homo sapiens (Human), UniProt P53671)
Experimental: as §1

SGK = SGK (Homo sapiens (Human), UniProt O00141)
Experimental: as §1

GSK3A = GSK3A (Homo sapiens (Human), UniProt P49840)
Experimental: as §1

HIPK2 = HIPK2 (Homo sapiens (Human), UniProt Q9H2X6)
Experimental: as §1

EGFR(T790M) = EGFR(T790M) (Homo sapiens (Human), UniProt P00533, T790M)
Experimental: as §1

DDR1 = DDR1 (Homo sapiens (Human), UniProt Q08345)
Experimental: as §1

CDK9 = CDK9 (Homo sapiens (Human), UniProt P50750)
Experimental: as §1

PIK3CA(E542K) = PIK3CA(E542K) (Homo sapiens (Human), UniProt P42336, E542K)
Experimental: as §1

EPHA4 = EPHA4 (Homo sapiens (Human), UniProt P54764)
Experimental: as §1

CSNK2A2 = CSNK2A2 (Homo sapiens (Human), UniProt P19784)
Experimental: as §1

MEK3 = MEK3 (Homo sapiens (Human), UniProt P46734)
Experimental: as §1

Sequence of RAF1 (P04049 whole entry): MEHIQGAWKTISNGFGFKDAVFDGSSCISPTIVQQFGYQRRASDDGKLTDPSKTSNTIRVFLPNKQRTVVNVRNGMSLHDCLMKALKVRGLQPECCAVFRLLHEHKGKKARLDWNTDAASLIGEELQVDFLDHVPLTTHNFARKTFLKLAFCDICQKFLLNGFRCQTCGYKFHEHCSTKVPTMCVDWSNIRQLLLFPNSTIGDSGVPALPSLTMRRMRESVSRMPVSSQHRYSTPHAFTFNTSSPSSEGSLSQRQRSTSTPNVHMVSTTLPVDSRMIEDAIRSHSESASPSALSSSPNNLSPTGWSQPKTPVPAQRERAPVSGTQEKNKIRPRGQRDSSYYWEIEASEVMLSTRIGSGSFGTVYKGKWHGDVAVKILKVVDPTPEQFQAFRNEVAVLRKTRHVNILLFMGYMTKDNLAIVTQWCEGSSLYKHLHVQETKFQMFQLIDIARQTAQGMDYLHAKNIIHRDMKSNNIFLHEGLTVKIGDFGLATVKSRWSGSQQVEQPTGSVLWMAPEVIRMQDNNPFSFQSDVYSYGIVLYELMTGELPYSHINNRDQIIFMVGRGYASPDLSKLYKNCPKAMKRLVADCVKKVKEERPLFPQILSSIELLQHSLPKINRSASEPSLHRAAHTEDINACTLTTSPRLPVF
Sequence of BMPR1A (P36894 24-532): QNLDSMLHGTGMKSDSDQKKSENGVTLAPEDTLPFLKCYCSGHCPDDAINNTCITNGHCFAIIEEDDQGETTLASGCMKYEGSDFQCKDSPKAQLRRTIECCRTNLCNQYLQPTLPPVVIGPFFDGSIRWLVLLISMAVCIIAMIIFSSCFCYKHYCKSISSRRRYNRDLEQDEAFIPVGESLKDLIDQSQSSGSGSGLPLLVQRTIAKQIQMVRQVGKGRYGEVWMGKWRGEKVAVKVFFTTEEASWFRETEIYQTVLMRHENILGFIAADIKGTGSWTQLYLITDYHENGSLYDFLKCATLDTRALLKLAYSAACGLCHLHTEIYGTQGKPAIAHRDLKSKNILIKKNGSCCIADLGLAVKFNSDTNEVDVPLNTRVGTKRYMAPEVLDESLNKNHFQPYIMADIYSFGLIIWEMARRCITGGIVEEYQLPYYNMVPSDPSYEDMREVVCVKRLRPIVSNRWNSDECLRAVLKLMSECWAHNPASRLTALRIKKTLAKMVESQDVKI
Sequence of LIMK2 (P53671 whole entry): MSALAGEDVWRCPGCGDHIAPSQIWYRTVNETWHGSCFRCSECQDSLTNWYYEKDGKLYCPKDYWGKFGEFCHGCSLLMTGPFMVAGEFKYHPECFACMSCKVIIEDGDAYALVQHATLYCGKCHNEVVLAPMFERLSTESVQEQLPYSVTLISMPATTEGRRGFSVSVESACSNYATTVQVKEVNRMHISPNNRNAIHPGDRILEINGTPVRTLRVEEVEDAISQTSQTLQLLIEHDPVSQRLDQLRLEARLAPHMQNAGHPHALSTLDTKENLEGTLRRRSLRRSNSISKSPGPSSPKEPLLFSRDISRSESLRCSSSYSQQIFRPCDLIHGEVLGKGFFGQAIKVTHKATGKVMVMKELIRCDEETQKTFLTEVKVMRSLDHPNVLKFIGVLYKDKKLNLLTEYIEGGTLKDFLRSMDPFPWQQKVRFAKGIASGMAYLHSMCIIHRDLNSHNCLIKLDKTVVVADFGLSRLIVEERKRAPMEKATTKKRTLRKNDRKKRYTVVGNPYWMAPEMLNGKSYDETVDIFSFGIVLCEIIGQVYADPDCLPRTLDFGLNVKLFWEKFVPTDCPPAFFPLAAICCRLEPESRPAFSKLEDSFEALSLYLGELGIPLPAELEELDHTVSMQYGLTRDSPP
Sequence of EGFR(T790M) (P00533 25-1210 T790M): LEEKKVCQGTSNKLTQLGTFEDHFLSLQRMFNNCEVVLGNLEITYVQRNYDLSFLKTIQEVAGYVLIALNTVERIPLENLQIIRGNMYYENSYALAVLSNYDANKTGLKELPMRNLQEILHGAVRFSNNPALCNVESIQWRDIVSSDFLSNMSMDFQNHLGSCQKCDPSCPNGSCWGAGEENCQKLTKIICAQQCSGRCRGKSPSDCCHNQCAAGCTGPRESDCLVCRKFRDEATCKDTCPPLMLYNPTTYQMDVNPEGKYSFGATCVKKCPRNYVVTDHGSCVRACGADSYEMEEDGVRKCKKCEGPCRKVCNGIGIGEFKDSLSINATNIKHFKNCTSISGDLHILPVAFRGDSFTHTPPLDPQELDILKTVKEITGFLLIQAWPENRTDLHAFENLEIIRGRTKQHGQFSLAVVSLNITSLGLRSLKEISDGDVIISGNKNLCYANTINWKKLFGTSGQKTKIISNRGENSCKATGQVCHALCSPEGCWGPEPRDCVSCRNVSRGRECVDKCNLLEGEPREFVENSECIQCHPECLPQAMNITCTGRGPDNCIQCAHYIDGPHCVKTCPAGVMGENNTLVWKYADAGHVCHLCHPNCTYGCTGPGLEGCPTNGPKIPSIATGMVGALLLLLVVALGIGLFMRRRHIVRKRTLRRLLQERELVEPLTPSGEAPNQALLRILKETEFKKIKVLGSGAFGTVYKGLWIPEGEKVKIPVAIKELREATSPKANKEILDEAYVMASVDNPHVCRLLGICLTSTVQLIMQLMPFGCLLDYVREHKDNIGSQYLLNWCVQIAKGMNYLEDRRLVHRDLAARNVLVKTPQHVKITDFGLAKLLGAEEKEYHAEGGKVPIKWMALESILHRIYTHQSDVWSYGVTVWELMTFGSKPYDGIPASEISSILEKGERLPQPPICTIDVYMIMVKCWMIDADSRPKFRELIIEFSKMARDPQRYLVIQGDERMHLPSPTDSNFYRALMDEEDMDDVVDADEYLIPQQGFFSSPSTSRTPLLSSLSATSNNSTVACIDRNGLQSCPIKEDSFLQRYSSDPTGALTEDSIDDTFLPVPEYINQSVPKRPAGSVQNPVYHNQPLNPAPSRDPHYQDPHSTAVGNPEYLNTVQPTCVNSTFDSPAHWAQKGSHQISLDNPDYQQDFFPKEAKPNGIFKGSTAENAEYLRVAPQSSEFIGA
Sequence of CAMK1B (Q6P2M8 whole entry): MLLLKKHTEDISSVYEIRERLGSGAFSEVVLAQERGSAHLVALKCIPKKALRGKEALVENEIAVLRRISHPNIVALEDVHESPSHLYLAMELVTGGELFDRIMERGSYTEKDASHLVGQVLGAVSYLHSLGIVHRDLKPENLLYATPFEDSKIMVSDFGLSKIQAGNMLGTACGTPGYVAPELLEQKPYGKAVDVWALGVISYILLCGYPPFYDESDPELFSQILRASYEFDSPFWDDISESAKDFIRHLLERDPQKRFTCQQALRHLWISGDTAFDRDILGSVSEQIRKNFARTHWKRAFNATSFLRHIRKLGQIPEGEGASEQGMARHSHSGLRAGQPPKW
Sequence of KIT-autoinhibited (P10721 546-976 limits assumed): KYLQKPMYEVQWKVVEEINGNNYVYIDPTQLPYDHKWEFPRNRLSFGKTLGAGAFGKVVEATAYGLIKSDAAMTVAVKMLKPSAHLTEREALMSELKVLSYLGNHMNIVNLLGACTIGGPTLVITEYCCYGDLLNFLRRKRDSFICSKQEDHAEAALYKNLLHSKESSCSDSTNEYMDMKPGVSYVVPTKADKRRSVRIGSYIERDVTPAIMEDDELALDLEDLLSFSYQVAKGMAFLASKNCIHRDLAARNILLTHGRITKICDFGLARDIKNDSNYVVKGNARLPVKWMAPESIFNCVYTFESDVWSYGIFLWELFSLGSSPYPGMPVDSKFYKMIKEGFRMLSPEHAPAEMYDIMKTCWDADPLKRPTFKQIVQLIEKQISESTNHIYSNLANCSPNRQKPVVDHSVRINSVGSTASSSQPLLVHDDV
Sequence of OSR1 (O95747 whole entry): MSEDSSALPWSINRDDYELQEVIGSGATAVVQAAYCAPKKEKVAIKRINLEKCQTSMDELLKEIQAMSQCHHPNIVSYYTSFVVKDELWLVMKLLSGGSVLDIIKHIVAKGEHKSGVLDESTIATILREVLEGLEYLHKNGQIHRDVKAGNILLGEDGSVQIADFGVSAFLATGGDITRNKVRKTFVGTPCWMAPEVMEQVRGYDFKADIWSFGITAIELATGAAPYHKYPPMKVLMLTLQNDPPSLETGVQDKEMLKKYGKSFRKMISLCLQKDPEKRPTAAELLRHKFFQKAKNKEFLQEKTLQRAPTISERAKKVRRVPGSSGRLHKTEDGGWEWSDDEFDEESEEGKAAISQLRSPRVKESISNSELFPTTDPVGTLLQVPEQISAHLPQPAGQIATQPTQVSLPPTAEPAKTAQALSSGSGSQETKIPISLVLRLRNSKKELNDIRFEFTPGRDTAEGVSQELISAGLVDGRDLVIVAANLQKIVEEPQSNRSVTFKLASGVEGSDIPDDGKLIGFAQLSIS
Sequence of GSK3A (P49840 whole entry): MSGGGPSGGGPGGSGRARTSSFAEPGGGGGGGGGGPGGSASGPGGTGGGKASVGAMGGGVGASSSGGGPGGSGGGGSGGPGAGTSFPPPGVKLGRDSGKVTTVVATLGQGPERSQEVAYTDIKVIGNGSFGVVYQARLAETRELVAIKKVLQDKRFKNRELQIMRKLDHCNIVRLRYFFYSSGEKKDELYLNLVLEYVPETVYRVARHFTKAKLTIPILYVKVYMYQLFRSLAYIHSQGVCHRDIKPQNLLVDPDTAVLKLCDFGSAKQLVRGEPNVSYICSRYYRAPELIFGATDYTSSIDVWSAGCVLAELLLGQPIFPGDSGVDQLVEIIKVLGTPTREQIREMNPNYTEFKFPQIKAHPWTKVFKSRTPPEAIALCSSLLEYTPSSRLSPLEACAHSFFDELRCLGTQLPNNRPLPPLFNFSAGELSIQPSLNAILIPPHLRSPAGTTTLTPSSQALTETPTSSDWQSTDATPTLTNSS

CCN1CCN(Cc2cc(NC(=O)c3ccc(C)c(-c4ccc5nc(NC(=O)C6CC6)cn5n4)c3)cc(C(F)(F)F)c2)CC1 [Compound I-2, 3-(2-(cyclopropanecarboxamido)imidazo[1,2-b]pyridazin-6-yl)-N-(3-((4-ethylpiperazin-1-yl)methyl)-5-(trifluoromethyl)phenyl)-4-methylbenzamide]
remaining binding at 1 µM (MYLK4): 96% | remaining binding at 1 µM (TRKA): 0.75% | remaining binding at 1 µM (MUSK): 0.6% | remaining binding at 1 µM (ADCK3): 97% | remaining binding at 1 µM (STK39): 74% | remaining binding at 1 µM (MEK1): 92% | remaining binding at 1 µM (PKAC-alpha): 75% | remaining binding at 1 µM (DCAMKL2): 98% | remaining binding at 1 µM (MAP4K4): 0.15% | remaining binding at 1 µM (RIPK5): 89% | remaining binding at 1 µM (MST3): 85% | remaining binding at 1 µM (LTK): 3.3% | remaining binding at 1 µM (ERK3): 89% | remaining binding at 1 µM (TAOK2): 8.6% | remaining binding at 1 µM (OSR1): 99% | remaining binding at 1 µM (PIK3C2G): 92% | remaining binding at 1 µM (ROCK2): 82% | remaining binding at 1 µM (HIPK3): 56% | remaining binding at 1 µM (CAMK1B): 49% | remaining binding at 1 µM (DYRK1B): 62% | remaining binding at 1 µM (PIK3CA(C420R)): 85% | remaining binding at 1 µM (BMPR1A): 99% | remaining binding at 1 µM (KIT-autoinhibited): 79% | remaining binding at 1 µM (FYN): 4.1% | remaining binding at 1 µM (RAF1): 13% | remaining binding at 1 µM (CAMKK2): 28% | remaining binding at 1 µM (SGK3): 100% | remaining binding at 1 µM (ASK1): 97% | remaining binding at 1 µM (LIMK2): 96% | remaining binding at 1 µM (SGK): 83% | remaining binding at 1 µM (GSK3A): 43% | remaining binding at 1 µM (HIPK2): 93% | remaining binding at 1 µM (EGFR(T790M)): 15% | remaining binding at 1 µM (DDR1): 0.05% | remaining binding at 1 µM (CDK9): 14% | remaining binding at 1 µM (PIK3CA(E542K)): 96% | remaining binding at 1 µM (EPHA4): 0% | remaining binding at 1 µM (CSNK2A2): 94% | remaining binding at 1 µM (MEK3): 71%

CCN1CCN(Cc2cc(NC(=O)c3ccc(C)c(-c4ccc5nc(NC(=O)C6CC6)cn5c4)c3)cc(C(F)(F)F)c2)CC1 [Compound I-6, 3-(2-(cyclopropanecarboxamido)imidazo[1,2-a]pyridin-6-yl)-N-(3-((4-ethylpiperazin-1-yl)methyl)-5-(trifluoromethyl)phenyl)-4-methylbenzamide]
remaining binding at 1 µM (MYLK4): 100% | remaining binding at 1 µM (TRKA): 0% | remaining binding at 1 µM (MUSK): 2.1% | remaining binding at 1 µM (ADCK3): 96% | remaining binding at 1 µM (STK39): 93% | remaining binding at 1 µM (MEK1): 94% | remaining binding at 1 µM (PKAC-alpha): 97% | remaining binding at 1 µM (DCAMKL2): 100% | remaining binding at 1 µM (MAP4K4): 0.75% | remaining binding at 1 µM (RIPK5): 100% | remaining binding at 1 µM (MST3): 92% | remaining binding at 1 µM (LTK): 2% | remaining binding at 1 µM (ERK3): 100% | remaining binding at 1 µM (TAOK2): 7.6% | remaining binding at 1 µM (OSR1): 100% | remaining binding at 1 µM (PIK3C2G): 95% | remaining binding at 1 µM (ROCK2): 94% | remaining binding at 1 µM (HIPK3): 98% | remaining binding at 1 µM (CAMK1B): 97% | remaining binding at 1 µM (DYRK1B): 87% | remaining binding at 1 µM (PIK3CA(C420R)): 95% | remaining binding at 1 µM (BMPR1A): 92% | remaining binding at 1 µM (KIT-autoinhibited): 85% | remaining binding at 1 µM (FYN): 3.7% | remaining binding at 1 µM (RAF1): 18% | remaining binding at 1 µM (CAMKK2): 41% | remaining binding at 1 µM (SGK3): 100% | remaining binding at 1 µM (ASK1): 100% | remaining binding at 1 µM (LIMK2): 100% | remaining binding at 1 µM (SGK): 92% | remaining binding at 1 µM (GSK3A): 68% | remaining binding at 1 µM (HIPK2): 94% | remaining binding at 1 µM (EGFR(T790M)): 15% | remaining binding at 1 µM (DDR1): 0.15% | remaining binding at 1 µM (CDK9): 13% | remaining binding at 1 µM (PIK3CA(E542K)): 100% | remaining binding at 1 µM (EPHA4): 0% | remaining binding at 1 µM (CSNK2A2): 100% | remaining binding at 1 µM (MEK3): 87%
